# Test results published in PMC6643297 (Cell metabolism, 2018).
# Columns and labels:
# [1] = target: ACC2 (acetyl-CoA carboxylase 2) (Homo sapiens, UniProt O00763); test: ACC2 enzyme inhibition assay; format: biochemical
# [2] = target: ACC1 (acetyl-CoA carboxylase 1) (Homo sapiens, UniProt Q13085); test: ACC1 enzyme inhibition assay; format: biochemical
# ACC2 (acetyl-CoA carboxylase 2), sequence (O00763 whole entry): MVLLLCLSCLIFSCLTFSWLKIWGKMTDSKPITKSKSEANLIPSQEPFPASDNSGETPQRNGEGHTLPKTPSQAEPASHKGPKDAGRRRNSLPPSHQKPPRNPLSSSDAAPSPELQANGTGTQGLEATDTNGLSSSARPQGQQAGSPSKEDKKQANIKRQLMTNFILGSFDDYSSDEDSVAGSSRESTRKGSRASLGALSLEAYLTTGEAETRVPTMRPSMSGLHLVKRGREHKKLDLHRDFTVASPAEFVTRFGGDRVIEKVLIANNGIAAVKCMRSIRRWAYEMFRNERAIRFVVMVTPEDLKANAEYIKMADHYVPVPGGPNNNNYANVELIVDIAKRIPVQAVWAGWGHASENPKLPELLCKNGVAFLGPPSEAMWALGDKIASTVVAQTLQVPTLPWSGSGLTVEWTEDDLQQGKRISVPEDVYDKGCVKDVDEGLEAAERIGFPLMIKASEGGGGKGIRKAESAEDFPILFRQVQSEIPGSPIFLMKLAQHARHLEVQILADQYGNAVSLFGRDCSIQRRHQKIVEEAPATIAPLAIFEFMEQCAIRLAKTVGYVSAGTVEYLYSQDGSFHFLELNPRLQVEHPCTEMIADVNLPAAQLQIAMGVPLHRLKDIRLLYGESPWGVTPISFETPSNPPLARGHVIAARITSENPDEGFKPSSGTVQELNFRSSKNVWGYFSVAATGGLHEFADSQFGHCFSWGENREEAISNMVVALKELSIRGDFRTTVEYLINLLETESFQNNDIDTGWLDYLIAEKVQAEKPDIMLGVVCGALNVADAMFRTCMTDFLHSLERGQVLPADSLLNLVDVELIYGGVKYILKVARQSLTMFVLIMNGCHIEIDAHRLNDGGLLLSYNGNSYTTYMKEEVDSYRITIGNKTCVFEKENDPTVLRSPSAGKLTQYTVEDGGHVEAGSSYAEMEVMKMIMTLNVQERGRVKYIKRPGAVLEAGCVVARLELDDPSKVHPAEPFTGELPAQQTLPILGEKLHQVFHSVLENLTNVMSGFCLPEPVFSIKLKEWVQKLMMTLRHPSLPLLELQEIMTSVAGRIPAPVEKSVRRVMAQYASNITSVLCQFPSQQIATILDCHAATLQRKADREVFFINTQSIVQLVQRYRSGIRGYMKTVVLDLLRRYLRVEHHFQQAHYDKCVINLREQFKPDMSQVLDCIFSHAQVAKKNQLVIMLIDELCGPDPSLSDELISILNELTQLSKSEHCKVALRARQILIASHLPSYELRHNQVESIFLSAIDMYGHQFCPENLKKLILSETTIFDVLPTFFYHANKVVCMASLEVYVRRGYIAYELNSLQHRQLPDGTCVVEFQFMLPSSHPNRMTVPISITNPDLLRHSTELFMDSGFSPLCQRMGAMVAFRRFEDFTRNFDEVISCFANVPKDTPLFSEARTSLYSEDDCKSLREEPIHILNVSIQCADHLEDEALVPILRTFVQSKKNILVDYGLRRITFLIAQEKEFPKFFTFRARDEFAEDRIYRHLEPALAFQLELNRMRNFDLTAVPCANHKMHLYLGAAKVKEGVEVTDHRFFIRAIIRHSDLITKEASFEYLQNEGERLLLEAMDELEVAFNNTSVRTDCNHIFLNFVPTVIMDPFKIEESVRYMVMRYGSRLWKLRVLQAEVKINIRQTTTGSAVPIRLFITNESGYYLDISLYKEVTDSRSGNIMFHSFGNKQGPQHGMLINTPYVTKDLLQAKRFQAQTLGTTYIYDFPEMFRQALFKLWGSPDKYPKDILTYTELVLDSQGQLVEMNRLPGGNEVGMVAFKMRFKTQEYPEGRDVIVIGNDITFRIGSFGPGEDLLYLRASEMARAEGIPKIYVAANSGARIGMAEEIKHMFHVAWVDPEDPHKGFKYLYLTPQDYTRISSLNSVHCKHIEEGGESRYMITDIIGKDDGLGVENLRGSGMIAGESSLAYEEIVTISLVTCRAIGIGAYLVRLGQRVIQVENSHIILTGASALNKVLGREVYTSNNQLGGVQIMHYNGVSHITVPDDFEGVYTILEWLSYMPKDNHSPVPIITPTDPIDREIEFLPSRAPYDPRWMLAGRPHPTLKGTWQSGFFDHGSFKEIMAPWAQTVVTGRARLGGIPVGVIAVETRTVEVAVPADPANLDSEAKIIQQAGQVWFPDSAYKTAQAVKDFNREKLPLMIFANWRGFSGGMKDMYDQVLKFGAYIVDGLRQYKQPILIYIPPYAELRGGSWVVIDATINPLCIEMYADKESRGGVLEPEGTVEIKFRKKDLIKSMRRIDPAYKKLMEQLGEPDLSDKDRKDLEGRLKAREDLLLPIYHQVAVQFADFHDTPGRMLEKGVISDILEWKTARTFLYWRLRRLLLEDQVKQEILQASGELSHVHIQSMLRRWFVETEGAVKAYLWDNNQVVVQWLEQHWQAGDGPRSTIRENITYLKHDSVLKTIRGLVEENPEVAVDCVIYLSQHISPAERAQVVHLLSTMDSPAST
substance,measurement,setting,value
ND-654,IC50,[1],8 nM
same,IC50,[2],3 nM
